Measured values: paper PMC7177757, “The Aquaporin-3-Inhibiting Potential of Polyoxotungstates” (International Journal of Molecular Sciences, 2020)

Columns and labels:
aquaporin-3 (AQP3) [1] = target: T1, aquaporin-3 (AQP3) (Homo sapiens, UniProt Q92482); test: stopped-flow glycerol permeability in hRBCs; confirmed in yeast expressing human AQP3; format: cell-based; parameters: native AQP3 in human red blood cells (IC50); conditions: red blood cells
T1 sequence (Q92482 1-292): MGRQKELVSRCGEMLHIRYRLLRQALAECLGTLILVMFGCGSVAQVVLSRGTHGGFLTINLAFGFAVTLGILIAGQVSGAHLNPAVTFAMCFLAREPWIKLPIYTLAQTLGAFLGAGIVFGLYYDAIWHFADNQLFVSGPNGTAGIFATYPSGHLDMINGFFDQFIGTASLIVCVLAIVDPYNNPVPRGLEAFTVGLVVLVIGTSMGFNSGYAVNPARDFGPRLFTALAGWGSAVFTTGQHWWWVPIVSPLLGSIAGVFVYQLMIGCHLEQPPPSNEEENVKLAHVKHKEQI

aquaporin-3 (AQP3) [2] = target: T1, aquaporin-3 (AQP3); test: stopped-flow glycerol permeability in hRBCs; format: cell-based; parameters: native AQP3 in human red blood cells; conditions: red blood cells

IC50 (aquaporin-3 (AQP3) [1]) [nM] | IC50 (aquaporin-3 (AQP3) [2]) [nM] | Substance
800 ± 40 | – | P2W18
– | 2780 ± 90 | P2W12
– | 3240 ± 30 | P5W30
